Format in all cases: cell-based
Data set [1] has as its system Enterovirus 71 (EV71) H strain. As to the kind of experiment: In vitro anti-EV71 activity (antiviral activity in RD cells, CellTiter-Glo). The settings on record: Enterovirus A, 96 h; EV71 H strain, RD cells, 4 days, CellTiter-Glo; read-out: IC50. In short, it runs like this:
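RD cells infected with 100TCID50 EV71 in DMEM+2% FBS, with compound in 10-point three-fold dilutions, cultured 4 days at 37° C. Cell viability by CellTiter-Glo luminescence; inhibition rate relative to cell control fitted to S-curve for IC50. TD50 derived likewise; SI=TD50/IC50.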
A general note: In ATP-based viability assays light output follows the ATP content of the culture.

The test system of another data set is RD cells. Kind of data set: Detection of cytotoxicity in RD cells (CellTiter-Glo). The settings on record: 4 days, CellTiter-Glo, median toxic dose. The method, boiled down: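 RD cells (1*10^5/mL) cultured 4 days at 37 °C with 10 compound concentrations from 3-fold dilution of a 400 μM pretreatment solution, final being 0.5 times that. Viability by CellTiter-Glo luminescence versus cell control; TD50 from S-curve fit; SI=TD50/IC50.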

The target in a further data set is T1, mTORC1 (Homo sapiens, UniProt P42345).
T1 construct: endogenous in cells; host or cells: RD cells
Kind of data set: Western blot, phosphorylation of Thr389 of p70S6K1 in RD cells (mTORC1 inhibition). The settings on record: 20 μM, 2 hours, Western blot (FIG. 1). On the procedure:
(§1) In order to test the inhibitory activity of the synthesized compounds on the two mTOR complexes, the inhibitory activity experiments of mTORC1 and mTORC2 were carried out. Since mTORC1 and mTORC2 exerted their function by activating the phosphorylation of downstream substrates, the inhibitory activity of the compounds on mTORC1 and mTORC2 could be determined by detecting the phosphorylation levels of the Thr389 site of mTORC1 downstream substrate p70S6K1 and the Ser473 site of mTORC2 downstream substrate Akt.
(§2) Pretreatment of Compound:
(§3) (1) RD cells were cultured in DMEM medium containing 10% FBS and 1×PS (penicillin and streptomycin were at concentrations 100 IU and 100 μg/mL, respectively) at 37° C. and 5% CO2.
(§4) (2) The RD cells (5×10^5 cells/2 mL medium) were inoculated into a 6-well plate and incubated at 37° C. and 5% CO2 for 24 hours.
(§5) (3) The cells were washed once with PBS, and the cells were cultured in serum-free medium without nutrients overnight.
(§6) (4) Formulation of compounds: […]
(§7) Preparation of insulin medium: Insulin was diluted in DMEM medium containing 10% FBS and 1×PS so that the final concentration of insulin was 167 nM.
(§8) Pretreatment of compound to be tested: The compound was dissolved in DMSO so that the concentration of the test compound was 20 mM, and the compound was diluted in 167 nM insulin medium to reach a concentration of 20 μM.
(§9) Preparation of rapamycin solution: Rapamycin was dissolved in DMSO to a concentration of 10 mM, and the rapamycin was diluted in 167 nM insulin medium to reach a concentration of 20 μM.
(§10) (5) The serum-free medium in each well was removed.
(§11) (6) 2 mL of complete medium containing DMSO was added to each well as a control carrier. The final concentration of DMSO was 0.2%.
(§12) (7) 2 mL of 20 μM rapamycin solution and 20 μM the compound to be tested were added to the designated wells, respectively. The final concentration of DMSO was 0.2%.
(§13) (8) The cells were incubated for 2 hours at 37° C. and 5% CO2.
(§14) Protein extraction and concentration determination:
(§15) (1) The cells were washed once with refrigerated PBS, and then the PBS was discarded.
(§16) (2) 150 μL of cell extraction buffer (RIPA, […], catalog number: C1053) was transferred into each well to lyse the cells, and then the resulting cell solution were incubated on ice for 30 minutes.
(§17) (3) Centrifugation was performed at 14000 rpm (13000× g) for 30 minutes at 4° C.
(§18) (4) The supernatant was transferred into a new eppendorf tube, and the cell lysate was stored at −80° C. before testing.
(§19) (5) The protein concentration was determined by BCA method.
(§20) Preparation of Buffer Solutions:
(§21) (1) 100× Protease inhibitor (Beyotime, catalog number: P1005): 1 mL of redistilled water was added to the protease inhibitor and stirred gently until the solid was completely dissolved.
(§22) (2) Lysis Buffer: […] of 100× protease inhibitor and 2× phosphatase inhibitor Cocktails PhosSTOP (Beyotime, catalog number: P1082) were added to 100 mL of the cell extract, and stirred gently until it was completely dissolved.
(§23) (3) Electrophoresis Running Buffer:
(§24) 10×MOPS buffer: 52.33 g of MOPS, 30.29 g of Tris base, 10 mL of 0.5 mol/L EDTA (pH 8.5) and 5 g of SDS was dissolved in 400 mL of redistilled water, stirred to dissolve, and the pH was adjusted to 7.5, then redistilled water was added again to reach a volume of 500 mL; 1×MOPS: 100 mL of 10×MOPS was diluted with redistilled water to 1000 mL.
(§25) (4) 1× Transfer Buffer: […] of 10× transfer buffer (144 g of glucine, 30.3 g of trisbase, and distilled water were mixed to reach a volume of 1 L) and 400 mL of methanol were dissolved in 1500 mL of redistilled water, and then the redistilled water was added to reach a volume of 2000 mL. […]

In the next data set the target is T2, mTORC2 (Homo sapiens, UniProt P42345).
T2 construct: endogenous in cells; host or cells: RD cells
Kind of data set: Western blot, phosphorylation of Ser473 of Akt in RD cells (mTORC2 inhibition). As to conditions: 20 μM, 2 hours, Western blot (FIG. 1). The protocol: as §1, §2, §3, §4, §5, §6, §7, §8, §9, §10, §11, §12, §13, §14, §15, §16, §17, §18, §19, §20, §21, §22, §23, §24, §25
In general terms: A western blot detects proteins with antibodies after separation by electrophoresis.

The structures appear in SMILES notation.

Take `CC(C)C(=O)Nc1ccc(-c2ccc3ncc4ccc(=O)n(-c5cccc(C(F)(F)F)c5)c4c3c2)cn1` [HTL-7-07, 9-[3-(2-isobutyrylamino)pyridyl]-2-oxo-1-[3-(trifluoromethyl)phenyl]-1,2-dihydrobenzo[h][1,6]naphthyridine]: the IC50 in data set [1] is 380 ± 390 nM. This compound also yielded a TD50 in the data set on RD cells of 0.46 ± 0.03 µM. Besides, at mTORC1, the “p70 phosphorylation expression level” value is on record as “significantly down-regulate”. Also, the “phosphorylation expression level of Akt” value at mTORC2 was “significantly down-regulate”.

Usually IC50 stands for the concentration that inhibits the measured activity by half.

Values taken from patent publication US20220220106A1, “QUINOLINE COMPOUNDS AND PHARMACEUTICAL COMPOSITIONS AND USES THEREOF” (Academy of Military Medical Sciences, priority 2019, published 2022).
